Target: CYP2C19 (Homo sapiens, UniProt P33261)
Test: Kinetic properties of fluorogenic substrates with CYP 2C19
Type: biochemical
Conditions: not given

Chain of CYP2C19 (P33261 whole entry): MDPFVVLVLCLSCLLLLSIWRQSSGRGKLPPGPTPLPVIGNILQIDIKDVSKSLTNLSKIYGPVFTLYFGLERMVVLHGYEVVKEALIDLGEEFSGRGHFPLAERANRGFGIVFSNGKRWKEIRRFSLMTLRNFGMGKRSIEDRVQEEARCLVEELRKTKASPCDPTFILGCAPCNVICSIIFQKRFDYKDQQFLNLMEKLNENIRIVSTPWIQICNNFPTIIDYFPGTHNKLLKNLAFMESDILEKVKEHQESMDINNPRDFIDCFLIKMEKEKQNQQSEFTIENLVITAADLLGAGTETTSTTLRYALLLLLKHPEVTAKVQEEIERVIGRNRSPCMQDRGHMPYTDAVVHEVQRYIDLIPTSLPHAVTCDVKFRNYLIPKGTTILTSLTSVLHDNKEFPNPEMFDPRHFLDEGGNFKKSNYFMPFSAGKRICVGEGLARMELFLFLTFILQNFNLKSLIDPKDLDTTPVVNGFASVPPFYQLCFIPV

Compound | type of kinetics
COCOc1ccc2cc(C#N)c(=O)oc2c1 [MOMCC] | Michaelis-Menten
CCOc1ccc2cc(C#N)c(=O)oc2c1 [3CEC, 3-Cyano-7-ethoxycoumarin, reference compound] | Michaelis-Menten

Same assay, conditions: turnover rate at 1.25 uM substrate; — = too low to quantify

Compound | v (1.25 uM) [min⁻¹]
COCOc1ccc2cc(C#N)c(=O)oc2c1 [MOMCC] | 0.14
CCOc1ccc2cc(C#N)c(=O)oc2c1 [3CEC, 3-Cyano-7-ethoxycoumarin, reference compound] | 0.05
CCN(CC)Cc1cc(=O)oc2cc(OC)ccc12 [DMMC] | 0.03
CC(C)Oc1ccc2cc(C#N)c(=O)oc2c1 [IPCC] | 0.027

Same assay, conditions: turnover rate at 10 uM substrate; — = too low to quantify

Compound | v (10 uM) [min⁻¹]
COCOc1ccc2cc(C#N)c(=O)oc2c1 [MOMCC] | 0.38
CCOc1ccc2cc(C#N)c(=O)oc2c1 [3CEC, 3-Cyano-7-ethoxycoumarin, reference compound] | 0.34
CCN(CC)Cc1cc(=O)oc2cc(OC)ccc12 [DMMC] | 0.23
CC(C)Oc1ccc2cc(C#N)c(=O)oc2c1 [IPCC] | 0.232

Target: CYP2C9 (Homo sapiens, UniProt P11712)
Sequence (P11712 whole entry): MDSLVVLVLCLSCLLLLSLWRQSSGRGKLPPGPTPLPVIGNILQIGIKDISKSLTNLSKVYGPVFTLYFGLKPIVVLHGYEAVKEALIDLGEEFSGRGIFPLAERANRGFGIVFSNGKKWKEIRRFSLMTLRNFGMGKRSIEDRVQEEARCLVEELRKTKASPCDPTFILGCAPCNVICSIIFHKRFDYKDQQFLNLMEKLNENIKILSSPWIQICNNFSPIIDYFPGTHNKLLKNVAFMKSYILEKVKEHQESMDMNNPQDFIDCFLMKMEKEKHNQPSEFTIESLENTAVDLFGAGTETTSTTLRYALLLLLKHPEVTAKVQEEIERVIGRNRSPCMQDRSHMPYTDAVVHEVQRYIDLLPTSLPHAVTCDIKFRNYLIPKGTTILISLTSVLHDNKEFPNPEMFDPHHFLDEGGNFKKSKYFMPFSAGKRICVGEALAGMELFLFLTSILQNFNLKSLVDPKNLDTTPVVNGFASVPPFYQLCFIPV
Test: Kinetic properties of fluorogenic substrates with CYP 2C9
Type: biochemical
Conditions: not given

Compound | type of kinetics
7-Methoxy-4-trifluoromethylcoumarin [MFC, reference compound] | Michaelis-Menten
COCOc1ccc2cc(C#N)c(=O)oc2c1 [MOMCC] | Michaelis-Menten
COCOc1ccc2c(C(F)(F)F)cc(=O)oc2c1 [MOMFC, 7-Methyloxymethyloxy-4-trifluorocoumarin] | Michaelis-Menten

Same assay, conditions: turnover rate at 1.25 uM substrate; — = too low to quantify

Compound | v (1.25 uM) [min⁻¹]
7-Methoxy-4-trifluoromethylcoumarin [MFC, reference compound] | 0.01
COCOc1ccc2cc(C#N)c(=O)oc2c1 [MOMCC] | 0.01
COCOc1ccc2c(C(F)(F)F)cc(=O)oc2c1 [MOMFC, 7-Methyloxymethyloxy-4-trifluorocoumarin] | 0.00

Same assay, conditions: turnover rate at 10 uM substrate; — = too low to quantify

Compound | v (10 uM) [min⁻¹]
7-Methoxy-4-trifluoromethylcoumarin [MFC, reference compound] | 0.03
COCOc1ccc2cc(C#N)c(=O)oc2c1 [MOMCC] | 0.07
COCOc1ccc2c(C(F)(F)F)cc(=O)oc2c1 [MOMFC, 7-Methyloxymethyloxy-4-trifluorocoumarin] | 0.07

Same assay, conditions: — = too low to quantify

Compound | Km [µM] | kcat [s⁻¹]
7-Methoxy-4-trifluoromethylcoumarin [MFC, reference compound] | 103 | 0.0067
COCOc1ccc2c(C(F)(F)F)cc(=O)oc2c1 [MOMFC, 7-Methyloxymethyloxy-4-trifluorocoumarin] | 14.9 | 0.0017

Target: T1, CYP 1A2 (Homo sapiens, UniProt P05177)
T1 sequence (P05177 1-516): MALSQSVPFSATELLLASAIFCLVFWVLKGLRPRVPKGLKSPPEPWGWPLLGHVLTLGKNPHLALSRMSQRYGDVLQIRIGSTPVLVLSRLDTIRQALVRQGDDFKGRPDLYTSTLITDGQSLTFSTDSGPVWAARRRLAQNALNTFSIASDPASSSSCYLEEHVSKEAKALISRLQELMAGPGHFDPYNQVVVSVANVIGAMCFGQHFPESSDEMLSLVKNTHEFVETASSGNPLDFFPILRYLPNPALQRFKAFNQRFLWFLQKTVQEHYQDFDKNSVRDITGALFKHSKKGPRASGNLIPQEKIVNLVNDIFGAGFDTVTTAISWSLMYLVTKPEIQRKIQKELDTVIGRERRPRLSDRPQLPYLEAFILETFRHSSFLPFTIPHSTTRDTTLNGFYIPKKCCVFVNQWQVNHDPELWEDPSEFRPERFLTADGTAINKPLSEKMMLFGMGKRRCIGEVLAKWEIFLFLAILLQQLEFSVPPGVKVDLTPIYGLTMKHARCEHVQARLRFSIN
Test: Kinetic properties of fluorogenic substrates with CYP 1A2
Type: biochemical
Conditions: not given

Compound | type of kinetics
CCOc1ccc2cc(C#N)c(=O)oc2c1 [3CEC, 3-Cyano-7-ethoxycoumarin, reference compound] | Michaelis-Menten

Same assay, conditions: turnover rate at 1.25 uM substrate

Compound | v (1.25 uM) [min⁻¹]
CCOc1ccc2cc(C#N)c(=O)oc2c1 [3CEC, 3-Cyano-7-ethoxycoumarin, reference compound] | 1.73

Same assay, conditions: turnover rate at 10 uM substrate

Compound | v (10 uM) [min⁻¹]
CCOc1ccc2cc(C#N)c(=O)oc2c1 [3CEC, 3-Cyano-7-ethoxycoumarin, reference compound] | 12.55

Target: T2, CYP 2B6 (Homo sapiens, UniProt P20813)
T2 sequence (P20813 1-491): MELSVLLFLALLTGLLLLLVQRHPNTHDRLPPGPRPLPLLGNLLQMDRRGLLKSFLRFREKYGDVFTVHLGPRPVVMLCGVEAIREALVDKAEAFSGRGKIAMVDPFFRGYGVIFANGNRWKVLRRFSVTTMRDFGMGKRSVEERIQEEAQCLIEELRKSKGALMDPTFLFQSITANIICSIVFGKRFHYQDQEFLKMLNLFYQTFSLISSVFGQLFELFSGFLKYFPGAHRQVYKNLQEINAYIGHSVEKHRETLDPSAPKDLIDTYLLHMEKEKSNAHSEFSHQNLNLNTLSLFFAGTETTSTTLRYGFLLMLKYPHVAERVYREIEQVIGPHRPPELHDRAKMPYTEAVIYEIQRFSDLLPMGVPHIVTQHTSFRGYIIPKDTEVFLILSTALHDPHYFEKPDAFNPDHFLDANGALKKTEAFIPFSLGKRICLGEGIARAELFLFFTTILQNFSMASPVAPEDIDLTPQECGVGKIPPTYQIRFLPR
Test: Kinetic properties of fluorogenic substrates with CYP 2B6
Type: biochemical
Conditions: not given

Compound | type of kinetics
7-Methoxy-4-trifluoromethylcoumarin [MFC, reference compound] | Michaelis-Menten
COCOc1ccc2c(C(F)(F)F)cc(=O)oc2c1 [MOMFC, 7-Methyloxymethyloxy-4-trifluorocoumarin] | notMichaelis-Menten

Same assay, conditions: turnover rate at 1.25 uM substrate; — = too low to quantify

Compound | v (1.25 uM) [min⁻¹]
7-Methoxy-4-trifluoromethylcoumarin [MFC, reference compound] | 1.63
COCOc1ccc2c(C(F)(F)F)cc(=O)oc2c1 [MOMFC, 7-Methyloxymethyloxy-4-trifluorocoumarin] | 0.54

Same assay, conditions: turnover rate at 10 uM substrate; — = too low to quantify

Compound | v (10 uM) [min⁻¹]
7-Methoxy-4-trifluoromethylcoumarin [MFC, reference compound] | 2.53
COCOc1ccc2c(C(F)(F)F)cc(=O)oc2c1 [MOMFC, 7-Methyloxymethyloxy-4-trifluorocoumarin] | 0.71

Same assay, conditions: — = too low to quantify

Compound | Km [µM] | kcat [s⁻¹]
7-Methoxy-4-trifluoromethylcoumarin [MFC, reference compound] | 1.4 | 0.0483

Target: CYP2D6 (Homo sapiens, UniProt P10635)
Sequence (P10635 whole entry): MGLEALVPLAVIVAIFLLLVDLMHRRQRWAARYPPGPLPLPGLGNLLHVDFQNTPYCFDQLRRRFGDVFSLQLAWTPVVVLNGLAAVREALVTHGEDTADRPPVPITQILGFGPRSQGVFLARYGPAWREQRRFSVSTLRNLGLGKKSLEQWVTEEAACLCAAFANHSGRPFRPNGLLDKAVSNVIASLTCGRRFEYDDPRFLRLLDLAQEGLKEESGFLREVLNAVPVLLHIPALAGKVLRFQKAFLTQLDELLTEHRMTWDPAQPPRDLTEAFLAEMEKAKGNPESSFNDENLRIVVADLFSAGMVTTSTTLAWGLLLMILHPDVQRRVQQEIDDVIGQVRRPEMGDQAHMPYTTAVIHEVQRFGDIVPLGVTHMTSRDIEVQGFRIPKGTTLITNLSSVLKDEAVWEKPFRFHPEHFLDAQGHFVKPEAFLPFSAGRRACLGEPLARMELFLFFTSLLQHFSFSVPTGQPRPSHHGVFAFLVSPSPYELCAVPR
Test: Kinetic properties of fluorogenic substrates with CYP 2D6
Type: biochemical
Conditions: not given
Description: (respectively, MFC and MR).

Compound | type of kinetics
7-Methoxy-4-trifluoromethylcoumarin [MFC, reference compound] | Michaelis-Menten

Same assay, conditions: turnover rate at 1.25 uM substrate; — = too low to quantify

Compound | v (1.25 uM) [min⁻¹]
7-Methoxy-4-trifluoromethylcoumarin [MFC, reference compound] | 0.03
CC(C)Oc1ccc2cc(C#N)c(=O)oc2c1 [IPCC] | 0.0076

Same assay, conditions: turnover rate at 10 uM substrate; — = too low to quantify

Compound | v (10 uM) [min⁻¹]
7-Methoxy-4-trifluoromethylcoumarin [MFC, reference compound] | 0.10
CC(C)Oc1ccc2cc(C#N)c(=O)oc2c1 [IPCC] | 0.0378

Same assay, conditions: — = too low to quantify

Compound | Km [µM] | kcat [s⁻¹]
7-Methoxy-4-trifluoromethylcoumarin [MFC, reference compound] | 10 | 0.005

Target: CYP3A4 (Homo sapiens, UniProt P08684)
Sequence (P08684 whole entry): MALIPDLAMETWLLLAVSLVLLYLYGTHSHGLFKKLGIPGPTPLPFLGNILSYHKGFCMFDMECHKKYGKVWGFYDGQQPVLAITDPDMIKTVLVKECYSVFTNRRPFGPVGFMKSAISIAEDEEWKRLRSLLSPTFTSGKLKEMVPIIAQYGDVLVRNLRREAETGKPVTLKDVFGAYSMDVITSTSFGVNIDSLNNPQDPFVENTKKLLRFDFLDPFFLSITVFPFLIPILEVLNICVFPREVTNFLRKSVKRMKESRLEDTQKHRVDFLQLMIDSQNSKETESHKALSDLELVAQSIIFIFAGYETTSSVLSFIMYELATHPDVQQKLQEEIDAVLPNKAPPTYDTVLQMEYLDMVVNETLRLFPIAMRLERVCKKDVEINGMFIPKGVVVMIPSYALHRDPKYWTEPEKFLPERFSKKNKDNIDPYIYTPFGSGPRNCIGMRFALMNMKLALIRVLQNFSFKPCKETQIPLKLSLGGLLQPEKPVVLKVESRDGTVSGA
Test: in vitro
Conditions: pH 8, % inhibition, substrate BOMCC, Condition A

inhibition at 20 min, 10 µM [%] | Compound
44 | O=C1CN(/N=C/c2ccc([N+](=O)[O-])o2)C(=O)N1 [Nitrofurantoin]
7 | C=CCOc1ccccc1OCC(O)CNC(C)C (centres unmarked) [Oxprenolol]

Continued, compound first:

Compound | inhibition at 20 min, 10 µM [%]
O=C1NC(=O)C(c2ccccc2)(c2ccccc2)N1 [Diphenylhydantoin] | -11
NNC(=O)c1ccncc1 [Isoniazid] | 59

Same assay, conditions: pH 8, % inhibition, substrate BOMCC, Condition B

inhibition at 40 min, 10 µM [%] | Compound
33 | O=C1CN(/N=C/c2ccc([N+](=O)[O-])o2)C(=O)N1 [Nitrofurantoin]
21 | C=CCOc1ccccc1OCC(O)CNC(C)C (centres unmarked) [Oxprenolol]

More lines, now with the values behind:

Compound | inhibition at 40 min, 10 µM [%]
O=C1NC(=O)C(c2ccccc2)(c2ccccc2)N1 [Diphenylhydantoin] | 21
NNC(=O)c1ccncc1 [Isoniazid] | 48

Same assay, conditions: pH 8, % inhibition, substrate BOMR, Condition A

inhibition at 20 min, 10 µM [%] | Compound
-19 | O=C1CN(/N=C/c2ccc([N+](=O)[O-])o2)C(=O)N1 [Nitrofurantoin]
-5 | C=CCOc1ccccc1OCC(O)CNC(C)C (centres unmarked) [Oxprenolol]

The remaining lines, values behind:

Compound | inhibition at 20 min, 10 µM [%]
O=C1NC(=O)C(c2ccccc2)(c2ccccc2)N1 [Diphenylhydantoin] | -27
NNC(=O)c1ccncc1 [Isoniazid] | -8

Same assay, conditions: pH 8, % inhibition, substrate BOMR, Condition B

inhibition at 40 min, 10 µM [%] | Compound
27 | O=C1CN(/N=C/c2ccc([N+](=O)[O-])o2)C(=O)N1 [Nitrofurantoin]
13 | C=CCOc1ccccc1OCC(O)CNC(C)C (centres unmarked) [Oxprenolol]

The remaining lines, values behind:

Compound | inhibition at 40 min, 10 µM [%]
O=C1NC(=O)C(c2ccccc2)(c2ccccc2)N1 [Diphenylhydantoin] | 24
NNC(=O)c1ccncc1 [Isoniazid] | 30

Same assay, conditions: pH 8, % inhibition, substrate DBOMF, Condition A

inhibition at 20 min, 10 µM [%] | Compound
-9 | O=C1CN(/N=C/c2ccc([N+](=O)[O-])o2)C(=O)N1 [Nitrofurantoin]
1 | C=CCOc1ccccc1OCC(O)CNC(C)C (centres unmarked) [Oxprenolol]

Second part, the compound before the results:

Compound | inhibition at 20 min, 10 µM [%]
O=C1NC(=O)C(c2ccccc2)(c2ccccc2)N1 [Diphenylhydantoin] | 21
NNC(=O)c1ccncc1 [Isoniazid] | -9

Same assay, conditions: pH 8, % inhibition, substrate DBOMF, Condition B

inhibition at 40 min, 10 µM [%] | Compound
-3 | O=C1CN(/N=C/c2ccc([N+](=O)[O-])o2)C(=O)N1 [Nitrofurantoin]
3 | C=CCOc1ccccc1OCC(O)CNC(C)C (centres unmarked) [Oxprenolol]

Second part, the compound before the results:

Compound | inhibition at 40 min, 10 µM [%]
O=C1NC(=O)C(c2ccccc2)(c2ccccc2)N1 [Diphenylhydantoin] | 5
NNC(=O)c1ccncc1 [Isoniazid] | 3
